Test results as given in patent US8097733B2, “Pyrazole derivatives as 5-LO-inhibitors” (Pfizer Inc., priority 2007, dated 2012).

Experiments:
recombinant human 5-LOX = molecular target: T1, recombinant human 5-LOX (Homo sapiens, UniProt P09917); assay: Fluorescence Intensity 5-LOX Enzyme Assay; assay type: biochemical; conditions: crude lysate of recombinant human 5-LOX; highest inhibitor concentration tested typically 25 μM
T1 sequence (P09917 1-674): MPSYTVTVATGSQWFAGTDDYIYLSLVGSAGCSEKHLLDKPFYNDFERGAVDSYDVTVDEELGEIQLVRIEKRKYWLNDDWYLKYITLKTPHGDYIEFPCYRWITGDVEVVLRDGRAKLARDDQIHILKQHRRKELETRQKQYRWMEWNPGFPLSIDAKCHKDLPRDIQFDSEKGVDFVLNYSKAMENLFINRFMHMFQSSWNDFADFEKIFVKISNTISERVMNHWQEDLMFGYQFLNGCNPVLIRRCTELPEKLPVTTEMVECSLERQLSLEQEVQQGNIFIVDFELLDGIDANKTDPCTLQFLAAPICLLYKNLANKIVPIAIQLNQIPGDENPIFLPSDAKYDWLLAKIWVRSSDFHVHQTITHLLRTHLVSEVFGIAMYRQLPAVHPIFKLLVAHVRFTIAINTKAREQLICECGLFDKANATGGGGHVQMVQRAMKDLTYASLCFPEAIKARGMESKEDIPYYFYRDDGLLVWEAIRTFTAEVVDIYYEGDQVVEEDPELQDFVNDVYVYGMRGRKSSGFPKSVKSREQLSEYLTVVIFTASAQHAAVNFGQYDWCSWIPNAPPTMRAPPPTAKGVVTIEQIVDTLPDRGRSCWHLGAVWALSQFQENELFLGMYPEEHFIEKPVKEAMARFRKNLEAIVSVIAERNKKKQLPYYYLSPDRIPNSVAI
Summary of the method: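 Crude lysate enzyme with H2DCFDA 10 μM (5 min dye pre-incubation), inhibitor pre-incubated 10 min; reaction started with 3 μM arachidonic acid plus 10 μM ATP in Tris pH 7.5, CaCl2, EDTA, 20 min at room temperature, acetonitrile stop. Fluorescein fluorescence; 7-point 4-parameter IC50, top 25 μM, 2.5% DMSO.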

[1] = test system: human whole blood (leukotriene and prostaglandin levels); assay: Eicosanoid production from human whole blood; assay type: cell-based; conditions: human whole blood stimulated with calcium ionophore A23187 and arachidonic acid; ELISA
Summary of the method: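 Pooled heparinized whole blood from healthy or asthmatic donors was preincubated with compound for 10 min at room temperature, with 2.5% DMSO final. It was stimulated with calcium ionophore A23187 plus arachidonic acid (30 μM) in 60% ethanol for 15 min at 37 °C. Plasma leukotrienes and prostaglandins were measured by ELISA.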

[2] = test system: eicosanoid production in the rat air pouch; assay: Carrageenan-induced eicosanoid production in the rat air pouch; assay type: in vivo; conditions: po, male Lewis rats, 3 mpk by gavage 1 hour prior to carrageenan
Procedure: Carrageenan-Induced Eicosanoid Production in the Rat Air Pouch:
Male Lewis rats (175-200 g), Charles River Laboratories, Wilmington, Mass.) were used in the study. Air pouches were produced by subcutaneous injection of 20 ml of sterile air into the intrascapular area of the back. Pouches were allowed to develop for 1 day. Animals (6 per group) were fasted with free access to water for 16 to 24 hours prior to drug administration. Drugs or vehicle were administered by gavage 1 hour prior to injection of 2 ml of a 1% suspension of carrageenan (FMC BioPolymer, Philadelphia, Pa., Cat. # GP209-NF) dissolved in saline into the pouch. At 3 hours post-carrageenan injection, 1 ml of 50 μg/ml calcium ionophore in saline (A23187, Sigma Chemical Co, St. Louis, M, Cat. #C-7522) was injected into the pouch and the pouch fluid collected 10 minutes later by lavage. The fluid was centrifuged at 3500 rpm for 10 minutes at 4° C., and the supernatants were collected for analysis. Leukotriene and prostaglandin levels were quantitated by ELISA according to the manufacturer's directions (Cayman Chemical Company, Ann Arbor, Mi).

Row | IC50 (recombinant human 5-LOX) [nM] | IC50 [1] [nM] | Structure (SMILES) | inhibition at 3 mg/kg [2] [%]
1 | 30 | 62.5 | C[C@H]1C[C@@](C#N)(c2cccc(Sc3ccc(-c4ccnn4C)cc3)c2F)CCO1 [29(2), (2S,4R)-4-(2-fluoro-3-(4-(1-methyl-1H-pyrazol-5-yl)phenylthio)phenyl)-2-methyl-tetrahydro-2H-Pyran-4-carbonitrile] | 100
2 | 113 | 55.7 | C[C@H]1C[C@@](C#N)(c2cccc(Sc3ccc(-c4ccnn4C)c(F)c3)c2)CCO1 [30(2), (2S,4R)-4-(3-(3-fluoro-4-(1-methyl-1H-pyrazol-5-yl)phenylthio)phenyl)-2-methyl-tetrahydro-2H-pyran-4-carbonitrile] | 95
3 | 21.5 | 59.8 | C[C@H]1C[C@@](C#N)(c2cccc(Sc3ccc(-c4ccnn4C)c(F)c3)c2F)CCO1 [31(1), (2S,4R)-4-(2-fluoro-3-(3-fluoro-4-(1-methyl-1H-pyrazol-5-yl)phenylthio)phenyl)-2-methyl-tetrahydro-2H-pyran-4-carbonitrile] | 96
4 | 151 | 107 | C[C@H]1C[C@@](C#N)(c2cc(F)cc(Sc3ccc(-c4ccnn4C)c(F)c3)c2)CCO1 [32(1), (2S,4R)-4-(3-fluoro-5-(3-fluoro-4-(1-methyl-1H-pyrazol-5-yl)phenylthio)phenyl)-2-methyl-tetrahydro-2H-pyran-4-carbonitrile] | 93
5 | 29.1 | 118 | C[C@H]1C[C@@](C#N)(c2cccc(Sc3cnc(Oc4ccnn4C)c(Cl)c3)c2F)CCO1 [52(4), (2S,4R)-4-(3-(5-chloro-6-(1-methyl-1H-pyrazol-5-yloxy)pyridin-3-ylthio)-2-fluorophenyl)-2-methyl-tetrahydro-2H-pyran-4-carbonitrile] | 97
6 | 146 | 962 | CNC(=O)C1(c2cccc(Sc3ccc(-c4ccnn4C)cc3)c2F)CCOCC1 [Example 17, 4-(2-fluoro-3-{[4-(1-methyl-1H-pyrazol-5-yl)phenyl]thio}phenyl)-N-methyl-tetrahydro-2H-pyran-4-carboxamide] | 83
7 | 16.4 | 185 | C[C@H]1C[C@@](C(N)=O)(c2cccc(Sc3ccc(-c4ccnn4C)cc3)c2)CCO1 [Example 22, (2S,4R)-2-methyl-4-(3-(4-(1-methyl-1H-pyrazol-5-yl)phenylthio)phenyl)-tetrahydro-2H-pyran-4-carboxamide] | 99.5
8 | 39.8 | 314 | C[C@H]1C[C@@](C(N)=O)(c2ccc(F)c(Sc3ccc(-c4ccnn4C)cc3)c2)CCO1 [Example 23, (2S,4R)-4-(4-fluoro-3-(4-(1-methyl-1H-pyrazol-5-yl)phenylthio)phenyl)-2-methyl-tetrahydro-2H-pyran-4-carboxamide] | 76
9 | 692 | 150 | C[C@H]1C[C@@](C#N)(c2ccc(F)c(Sc3ccc(-c4ccnn4C)cc3)c2)CCO1 [Example 24, (2S,4R)-4-(4-fluoro-4-(4-(1-methyl-1H-pyrazol-5-yl)phenylthio)phenyl)-2-methyl-tetrahydro-2H-pyran-4-carbonitrile] | 32
10 | 19.8 | 138 | C[C@H]1C[C@@](C(N)=O)(c2cc(F)cc(Sc3ccc(-c4ccnn4C)cc3)c2)CCO1 [Example 27, (2S,4R)-4-(3-fluoro-5-(4-(1-methyl-1H-pyrazol-5-yl)phenylthio)phenyl)-2-methyl-tetrahydro-2H-pyran-4-carboxamide] | 100
11 | 21 | 227 | C[C@H]1C[C@@](C(N)=O)(c2ccc(F)c(Sc3ccc(-c4ccnn4C)cc3)c2F)CCO1 [Example 28, (2S,4R)-4-(2,4-difluoro-3-(4-(1-methyl-1H-pyrazol-5-yl)phenylthio)phenyl)-2-methyl-tetrahydro-2H-pyran-4-carboxamide] | 100

The next lines start with the compound.

Row | Structure (SMILES) | IC50 (recombinant human 5-LOX) [nM] | IC50 [1] [nM] | inhibition at 3 mg/kg [2] [%]
12 | Cc1nccn1-c1ccc(Sc2cccc(C3(C(N)=O)CCOCC3)c2)cc1 [(d), 4-(3-(4-(2-methyl-1H-imidazol-1-yl)phenylthio)phenyl)-tetrahydro-2H-pyran-4-carboxamide, reference compound] | 877 | 275 | 73.1
13 | Cn1nccc1-c1ccc(Sc2cccc(C3(C(N)=O)CCOCC3)c2)cc1Cl [Example 1, 4-(3-{[3-chloro-4-(1-methyl-1H-pyrazol-5-yl)phenyl]thio}phenyl)tetrahydro-2H-pyran-4-carboxamide] | 89.7 | 76.5 | 50.5
14 | Cn1nccc1-c1ccc(Sc2cccc(C3(C(N)=O)CCOCC3)c2)cc1C#N [Example 2, 4-(3-{[3-Cyano-4-(1-methyl-1H-pyrazol-5-yl)phenyl]thio}phenyl)tetrahydro-2H-pyran-4-carboxamide] | 660 | 196 | 0
15 | CNC(=O)C1(c2cccc(Sc3ccc(-c4ccnn4C)cc3)c2)CCOCC1 [Example 10, N-Methyl-4-(3-{[4-(1-methyl-1H-pyrazol-5-yl)phenyl]thio}phenyl)tetrahydro-2H-pyran-4-carboxamide] | 287 | 294 | 5
16 | Cn1nccc1-c1ncc(Sc2cccc(C3(C(N)=O)CCOCC3)c2)cc1Cl [Example 11, 4-(3-{[5-chloro-6-(1-methyl-1H-pyrazol-5-yl)pyridin-3-yl]thio}phenyl)tetrahydro-2H-pyran-4-carboxamide] | 386 | 260 | 69
17 | Cn1nccc1-c1ccc(Sc2cccc(C3(C(N)=O)CCOCC3)c2)c(Cl)c1 [Example 13, 4-(3-{[2-chloro-4-(1-methyl-1H-pyrazol-5-yl)phenyl]thio}phenyl)tetrahydro-2H-pyran-4-carboxamide] | 54 | 119 | 1
18 | Cn1nccc1-c1ccc(Sc2cc(F)cc(C3(C(N)=O)CCOCC3)c2)cc1 [Example 15, 4-(3-fluoro-5-{[4-(1-methyl-1H-pyrazol-5-yl)phenyl]thio}phenyl)tetrahydro-2H-pyran-4-carboxamide] | 264 | 365 | 68.5
19 | CNC(=O)C1(c2cccc(Sc3ccc(-c4ccnn4C)cc3Cl)c2)CCOCC1 [Example 16, 4-(3-{[2-chloro-4-(1-methyl-1H-pyrazol-6-yl)phenyl]thio}phenyl)-N-methyltetrahydro-2H-pyran-4-carboxamide] | 67.9 | 331 | 0
20 | CNC(=O)C1(c2cc(F)cc(Sc3ccc(-c4ccnn4C)cc3)c2F)CCOCC1 [Example 19, 4-(2,5-difluoro-3-{[4-(1-methyl-1H-pyrazol-5-yl)phenyl]thio}phenyl)-N-methyltetrahydro-2H-pyran-4-carboxamide] | 114 | 996 | 95.3
21 | Cn1nccc1-c1ccc(Sc2c(F)ccc(C3(C(N)=O)CCOCC3)c2F)cc1 [Example 20, 4-(2,4-difluoro-3-{[4-(1-methyl-1H-pyrazol-5-yl)phenyl]thio}phenyl)-tetrahydro-2H-pyran-4-carboxamide] | 225 | 448 | 91
22 | Cn1nccc1-c1ccc(Sc2cc(C3(C(N)=O)CCOCC3)ccc2F)cc1 [Example 21, 4-(4-fluoro-3-(4-(1-methyl-1H-pyrazol-5-yl)phenylthio)phenyl)-tetrahydro-2H-pyran-4-carboxamide] | 567 | 859 | 96
